# According to patent US20260373164A1, “4(RS)-4-F4-NEUROPROSTANE DERIVATIVES (4-F4T-NEUROP) AND THEIR USE IN TREATING VENTILATOR INDUCED DIAPHRAGMATIC DYSFUNCTION AND OTHER DISEASES” (INSTITUT NATIONAL DE LA SANTÉ ET DE LA RECHERCHE MÉDICALE, priority 2022, published 2026):
# “Also recorded” adds a separate entry of the source.
# Columns and labels:
# [1] = test system: ventricular myocytes (type 2 ryanodine receptor); experiment: Anti-arrhythmic properties in isolated ventricular myocytes (calcium transients and cell contraction, IonOptix); format: cell-based, murine; details: 10 nM isoproterenol; for anti-arrhythmic properties (ryanodine dependent arrhythmic cells): VB574 10 nM, 100 nM or 1 μM, compound IV 1 μM, 1 Hz stimulation
# Description: Compounds 20,21,22-trinor-4(RS)-4-F4t-NeuroP (compound of Formula III, VB574) and monohydroxylated derivative of 4-F4t-NeuroP (Compound IV) were evaluated for their anti-arrhythmic properties. Calcium transients and cell contraction was measured by the photometric system ionOptix®.
# The photometric system IonOptix® can provide real-time, simultaneous acquisition of fluorescence photometry with sarcomere length measurements. For the study of isolated myocytes, the system includes a pacemaker that offers full control of the stimulation pulse duration, the frequency and the voltage. Thus, the photometric system IonOptix® puts in correlation the calcium transients and the shortening of the electrically stimulated myocytes (1 Hz, 20 V, FIG. 7). Calcium was studied by the use of a ratiometric fluorescent calcium probe (indo-1-AM, excitation wavelength 360±10 nm, emission wavelength at 405±10 nm and 485±10 nm).
# To measure the intracellular calcium, the first step was to bring ventricular myocytes load into contact with an amount of indo-1-AM. To make it liposoluble, indo-1 was esterified on its carboxylic functions to give indo-1-AM. Once present in the cell, esterases allow the release of Indo-1 carboxylic functions enabling it to bind to the intracellular calcium. The incorporation time was predetermined to 30 minutes. This time was chosen following experiments using different times of incubation and 30 minutes was the time giving a good ratio/noise ratio and no obvious perturbation of cellular calcium homeostasis. The incubation time of the probe is critical because too low load generates a weak signal while excessive exposure will excessively increase the buffering capacity of the cytoplasm for calcium.
# Once loaded and the cells arranged on the measuring system by means of a tank containing Tyrode salt solution (450 μL), the probe was excited by a xenon lamp at a wavelength of 360 nm. Through an optical wavelength filter, the apparatus collects the fluorescence emitted from the Indo-1 at two different wavelengths: 405±10 nm and 485±10 nm. The first wavelength represents the fluorescence of the probe bound to calcium and the second wavelength represents the fluorescence of the free probe. The ratio of these two wavelengths reflects the concentration of intracellular calcium. It is thus possible to observe calcium transients in ventricular myocytes systole but also to observe the diastolic calcium when the stimulation is stopped.
# To measure the contraction, striation of cardiac cells due to the presence of sarcomeres was used. […] The recorded signal is similar to a sine function. […]
# Thus, to evaluate the potential RyR stabilizing effect of the 4-F4T-neuroprostane derivatives (compounds III and IV), the compounds were applied, and the percentage of arrhythmic cells was measured.
# RyR2 = details: previously reported (ref. 21); cited from earlier work
smiles,measurement,setting,value
"CC/C=C\C/C=C\C[C@@H]1[C@H](/C=C/C(O)CCC(=O)O)[C@@H](O)C[C@H]1O (mixture of isomers) [compound III, (E)-6-((1S,2R,3R,5S)-3,5-dihydroxy-2-((2Z,5Z)-octa-2,5-dien-1-yl)cyclopentyl)-4-hydroxyhex-5-enoic Acid]",anti-arrhythmic properties (ryanodine dependent arrhythmic cells),[1],show anti-arrhythmic properties indicative of an interaction with the RyR
"CC/C=C\C/C=C\C/C=C\C/C=C\C/C=C\C/C=C\CCC(=O)O [DHA, docosahaenoic acid]","cardiac anti-arrhythmic effect, RyR2 stabilization",RyR2,"could exert a cardiac anti-arrhythmic effect due to a stabilization of the cardiac isoform of ryanodine receptor, RyR2"
CC/C=C\C/C=C\C/C=C\C[C@H]1CC[C@H](O)[C@H]1/C=C/C(O)CCC(=O)O (some centres unmarked) [compound IV],anti-arrhythmic properties (ryanodine dependent arrhythmic cells),[1],show anti-arrhythmic properties indicative of an interaction with the RyR
CC(C)NCC(O)c1ccc(O)c(O)c1 (centres unmarked) [isoproterenol],amplitude of contractions,[1],increase in the amplitude of contractions
same,extrasystole ventricular contraction (ESV),[1],promotes the development of ESV; also recorded: promote the development of ExtraSystole Ventricular contraction (ESV)
